Literature values as cited in US20210077417A1, “Methods and Compositions Particularly for Treatment of Attention Deficit Disorder” (Purdue Pharma L.P., priority 2018, published 2021).
Counter-ions that a name gives are not always drawn. Like-named read-outs stand apart in the source and are kept apart here.

How the values were obtained:
patients with ADHD = conditions: reported

## COC(=O)C(c1ccccc1)C1CCCCN1 (racemic) [Methylphenidate, dl-threo-methyl-2-phenyl-2-(2-piperidyl)acetate]
Acidic solutions
  Stability: relatively stable
As the pH increases to 8.9
  Degradation amount (hydrolysis of the methyl ester): up to 100%
Basic solutions
  Stability: degraded extensively

## COC(=O)C(c1ccccc1)C1CCCCN1 (stereo not shown) [Methylphenidate hydrochloride]
In acetone
  Solubility: slightly soluble
In alcohol
  Solubility: soluble
In chloroform
  Solubility: slightly soluble
In methanol
  Solubility: freely soluble
In water
  Solubility: freely soluble

## lisdexamfetamine dimesylate
Patients with ADHD
  Duration of action: up to 14 hours
  Onset of action: does not have a rapid onset of action
